Source: patent publication US9375496B2, “Halogenated compounds for cancer imaging and treatment and methods for their use” (The University of British Columbia, priority 2013, dated 2016)

What was measured:
[1] = target: T1, progesterone receptor-beta (PRβ) (Homo sapiens, UniProt P06401); assay: PRE-luciferase reporter assay in LNCaP cells cotransfected with full-length human PRβ; assay type: cell-based; conditions: 1.9 μM 8d, 10 nM progesterone, 24 h, LNCaP cells (FIG. 2B)
T1 construct: expression plasmids for full-length human PRβ; expressed in transfected cells; host or cells: LNCaP
T1 sequence (P06401 1-933): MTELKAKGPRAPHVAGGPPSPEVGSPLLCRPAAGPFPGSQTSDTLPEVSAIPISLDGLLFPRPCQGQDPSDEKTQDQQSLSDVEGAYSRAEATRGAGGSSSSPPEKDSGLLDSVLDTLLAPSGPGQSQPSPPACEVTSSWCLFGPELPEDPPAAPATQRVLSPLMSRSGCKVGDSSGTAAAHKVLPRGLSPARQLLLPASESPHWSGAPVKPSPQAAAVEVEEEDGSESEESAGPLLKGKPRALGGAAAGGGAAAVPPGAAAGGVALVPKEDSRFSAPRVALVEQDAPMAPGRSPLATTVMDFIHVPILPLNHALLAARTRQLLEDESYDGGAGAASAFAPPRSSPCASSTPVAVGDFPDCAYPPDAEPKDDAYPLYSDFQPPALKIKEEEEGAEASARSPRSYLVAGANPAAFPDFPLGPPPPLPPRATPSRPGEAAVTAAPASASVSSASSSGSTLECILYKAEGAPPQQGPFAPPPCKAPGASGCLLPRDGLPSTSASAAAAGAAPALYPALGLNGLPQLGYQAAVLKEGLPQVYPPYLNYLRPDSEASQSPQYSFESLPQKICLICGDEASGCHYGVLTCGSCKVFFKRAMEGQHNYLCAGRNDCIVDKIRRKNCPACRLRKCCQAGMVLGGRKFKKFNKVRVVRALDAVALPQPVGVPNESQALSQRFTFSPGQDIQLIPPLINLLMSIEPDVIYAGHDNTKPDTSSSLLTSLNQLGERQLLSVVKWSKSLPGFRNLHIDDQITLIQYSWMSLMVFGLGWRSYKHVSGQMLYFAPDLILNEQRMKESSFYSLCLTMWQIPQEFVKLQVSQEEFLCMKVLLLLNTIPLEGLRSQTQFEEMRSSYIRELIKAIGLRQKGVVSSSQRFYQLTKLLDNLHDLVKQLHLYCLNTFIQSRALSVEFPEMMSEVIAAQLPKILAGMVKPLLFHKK
Method: To assess specificity for the AR, parallel experiments were performed in LNCaP cells with endogenous AR and ectopic expression of other closely related human hormone receptors such as the progesterone receptor-beta (PRβ), glucocorticoid receptor (GR) and estrogen receptor-α (ER).
LNCaP cells were cotransfected with the expression plasmids for full-length human PRβ and the relative reporter (PRE-luciferase) for 24 h, and then treated with DMSO, 5 μM MDV3100, 25 μM Z, or 1.9 μM 8d with or without 10 nM progesterone for 24 h (FIG. 2B). Compound 8d had no effect on the transcriptional activity of closely related PRβ.

[2] = target: T2, recombinant LBD of AR (Homo sapiens, UniProt P10275); assay: Competitive ligand-binding assay (fluorescent polarization), recombinant AR LBD; conditions: 1 nM fluorescently labeled ligand, 5 h incubation, serial dilution
T2 sequence (P10275 669-900 limits assumed): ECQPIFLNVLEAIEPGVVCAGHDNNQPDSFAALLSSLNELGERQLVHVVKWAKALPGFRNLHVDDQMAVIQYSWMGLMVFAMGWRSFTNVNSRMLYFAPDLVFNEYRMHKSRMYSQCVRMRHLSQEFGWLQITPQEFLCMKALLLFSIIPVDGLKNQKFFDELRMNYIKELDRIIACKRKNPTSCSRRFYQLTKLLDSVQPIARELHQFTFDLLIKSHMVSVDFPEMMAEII
Method: (§1) Competitive ligand-binding assays to detect the displacement of fluorescently labeled ligand from recombinant LBDs (ligand binding domains) of AR, PR, GR and estrogen receptor (ER) by R1881, MDV3100, Z (also referred to as EPI-002 or EPI) or 8d (also referred to as iodinated EPI) were performed. FIGS. 14A-14E display competitive ligand-binding curves to indicate whether R1881, Z, antiandrogens (enzalutamide, hydroxyflutamide, bicalutamide) or 8d can displace 1 nM fluorescently labeled cognant ligand from recombinant LBDs of steroid hormone receptors by using fluorescent polarization (mP). Serial dilution was performed for each test compound. Mixtures were incubated for 5 h before measurement of fluorescent polarization.

[3] = tested on: PC3 cells; assay: PC3 cell viability, alamarBlue Cell Viability Assay; assay type: cell-based; conditions: day 3, at concentrations that reduced LNCaP proliferation
Description: (§2) Effects of 8d (also referred to as I-EPI-002) on androgen-dependent proliferation of LNCaP cells treated with R1881 were compared with PC3 and DU145 cell viability by alamarBlue Cell Viability Assay (FIG. 16).

[4] = target: T3, recombinant LBD of GR (Homo sapiens, UniProt P04150); assay: Competitive ligand-binding assay (fluorescent polarization), recombinant GR LBD; conditions: 1 nM fluorescently labeled ligand, 5 h incubation, serial dilution
T3 sequence (P04150 524-758 limits assumed): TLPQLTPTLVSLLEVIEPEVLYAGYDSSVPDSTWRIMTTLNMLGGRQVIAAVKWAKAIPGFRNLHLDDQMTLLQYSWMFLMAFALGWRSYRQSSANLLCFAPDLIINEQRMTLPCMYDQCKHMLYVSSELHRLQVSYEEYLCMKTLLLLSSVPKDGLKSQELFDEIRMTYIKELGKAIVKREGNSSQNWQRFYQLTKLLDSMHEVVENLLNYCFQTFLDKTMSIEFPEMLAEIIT
Method: as §1

[5] = tested on: LNCaP cells; assay: Androgen-dependent proliferation of LNCaP cells, alamarBlue Cell Viability Assay; assay type: cell-based; conditions: LNCaP treated with R1881, day 4, alamarBlue
Description: as §2

[6] = tested on: DU145 cells; assay: DU145 cell viability, alamarBlue Cell Viability Assay; assay type: cell-based; conditions: day 3, at concentrations that reduced LNCaP proliferation
Description: as §2

[7] = target: T4, recombinant LBD of PR (Homo sapiens, UniProt P06401); assay: Competitive ligand-binding assay (fluorescent polarization), recombinant PR LBD; conditions: 1 nM fluorescently labeled ligand, 5 h incubation, serial dilution
T4 sequence (P06401 679-913 limits assumed): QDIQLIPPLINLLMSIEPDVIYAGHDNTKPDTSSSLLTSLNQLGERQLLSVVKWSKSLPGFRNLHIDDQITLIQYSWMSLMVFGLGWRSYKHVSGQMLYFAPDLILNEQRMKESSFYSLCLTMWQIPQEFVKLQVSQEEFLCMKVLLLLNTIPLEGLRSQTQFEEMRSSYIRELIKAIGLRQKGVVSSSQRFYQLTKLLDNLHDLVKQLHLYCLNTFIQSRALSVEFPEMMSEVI
Method: as §1

[8] = target: T5, recombinant LBD of estrogen receptor (ER) (Homo sapiens, UniProt P03372); assay: Competitive ligand-binding assay (fluorescent polarization), recombinant ER LBD; conditions: 1 nM fluorescently labeled ligand, 5 h incubation, serial dilution
T5 sequence (P03372 311-547 limits assumed): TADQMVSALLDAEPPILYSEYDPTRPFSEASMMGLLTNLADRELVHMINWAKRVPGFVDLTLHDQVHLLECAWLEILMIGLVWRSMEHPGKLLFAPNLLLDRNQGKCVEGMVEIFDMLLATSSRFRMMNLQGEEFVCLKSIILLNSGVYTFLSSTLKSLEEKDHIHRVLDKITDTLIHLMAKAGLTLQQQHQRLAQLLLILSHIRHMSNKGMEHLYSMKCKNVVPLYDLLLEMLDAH
Method: as §1

transcriptional activity of PRβ (PRE-luciferase) [1]: no effect
binding to LBD of AR (displacement of fluorescently labeled ligand) [2]: does not bind
binding to LBD of GR (displacement of fluorescently labeled ligand) [4]: does not bind
binding to LBD of PR (displacement of fluorescently labeled ligand) [7]: does not bind
binding to LBD of ER (displacement of fluorescently labeled ligand) [8]: does not bind
Structure (SMILES): CC(C)(c1ccc(OC[C@H](O)CO)cc1)c1ccc(OC[C@H](O)CCl)c(I)c1 [Compound 8d, (R)-3-(4-(2-(4-((S)-3-chloro-2-hydroxypropoxy)-3-iodophenyl)propan-2-yl)phenoxy)propane-1,2-diol]
viability of PC3 cells [3]: no effect
AR-dependent proliferation of LNCaP cells [5]: reduced
viability of DU145 cells [6]: no effect
